Our source for the EC50 values is patent publication US11078216B2, “Bisaryl amides as NRF2 activators” (GLAXOSMITHKLINE INTELLECTUAL PROPERTY DEVELOPMENT LIMITED, priority 2016, dated 2021).

For the assay, the system named is NRF2 (NQO1 activity as marker for NRF2 activation), BEAS-2B cells. The assay is described as follows: BEAS-2B NQO1 MTT Assay. Conditions: Homo sapiens, EC50 of NQO1 specific activity induction, 48 hours incubation, read-out: EC50. In kind it is cell-based. The gist of the method: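 BEAS-2B cells were exposed to compound for 48 h at 37° C, 5% CO2, then lysed. NQO1 activity was measured kinetically by MTT reduction at 570 nm over 30 minutes; EC50 came from 3-parameter fit of Delta OD/min versus log concentration.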

For orientation: EC50 means the concentration at which the effect is half-maximal.

As to `CC[C@@H]1CN(Cc2cc([C@@H](c3ccc4c(nnn4CC)c3C)C(C)(C)NC(=O)C3CCCOC3)ccc2C)S(=O)(=O)c2ccccc2O1` (stereo partly drawn) [Example 135, N-((S)-1-(3-(((R)-4-Ethyl-1,1-dioxido-3,4-dihydro-2H-benzo[b][1,4,5]oxathiazepin-2-yl)methyl)-4-methylphenyl)-1-(1-ethyl-4-methyl-1H-benzo[d][1,2,3]triazol-5-yl)-2-methylpropan-2-yl)tetrahydro-2H-pyran-3-carboxamide], the EC50 is 10 to 100 nM.

Take `CC[C@@H]1CN(Cc2cc([C@@H](c3ccc4c(nnn4CC)c3C)C(C)(C)NC(=O)c3ccco3)ccc2C)S(=O)(=O)c2ccccc2O1` [Example 136, N-((S)-1-(3-(((R)-4-Ethyl-1,1-dioxido-3,4-dihydro-2H-benzo[b][1,4,5]oxathiazepin-2-yl)methyl)-4-methylphenyl)-1-(1-ethyl-4-methyl-1H-benzo[d][1,2,3]triazol-5-yl)-2-methylpropan-2-yl)furan-2-carboxamide]: the EC50 lay in the range of 100 to 1000 nM.

In the case of `CC[C@@H]1CN(Cc2cc([C@@H](c3ccc4c(nnn4CC)c3C)C(C)(C)NC(=O)c3ccoc3)ccc2C)S(=O)(=O)c2ccccc2O1` [Example 137, N-((S)-1-(3-(((R)-4-Ethyl-1,1-dioxido-3,4-dihydro-2H-benzo[b][1,4,5]oxathiazepin-2-yl)methyl)-4-methylphenyl)-1-(1-ethyl-4-methyl-1H-benzo[d][1,2,3]triazol-5-yl)-2-methylpropan-2-yl)furan-3-carboxamide], the EC50 is 10 to 100 nM.

On to `CC[C@@H]1CN(Cc2cc([C@@H](c3ccc4c(nnn4CC)c3C)C(C)(C)NC(=O)c3ccns3)ccc2C)S(=O)(=O)c2ccccc2O1` [Example 138, N-((S)-1-(3-(((R)-4-Ethyl-1,1-dioxido-3,4-dihydro-2H-benzo[b][1,4,5]oxathiazepin-2-yl)methyl)-4-methylphenyl)-1-(1-ethyl-4-methyl-1H-benzo[d][1,2,3]triazol-5-yl)-2-methylpropan-2-yl)isothiazole-5-carboxamide], for which the 50% effective concentration (EC50) lay within 10 to 100 nM.

On to `CC[C@@H]1CN(Cc2cc([C@@H](c3ccc4c(nnn4CC)c3C)C(C)(C)NC(=O)c3ccc(=O)n(C)c3)ccc2C)S(=O)(=O)c2ccccc2O1` [Example 139, N-((S)-1-(3-(((R)-4-Ethyl-1,1-dioxido-3,4-dihydro-2H-benzo[b][1,4,5]oxathiazepin-2-yl)methyl)-4-methylphenyl)-1-(1-ethyl-4-methyl-1H-benzo[d][1,2,3]triazol-5-yl)-2-methylpropan-2-yl)-1-methyl-6-oxo-1,6-dihydropyridine-3-carboxamide], for which the EC50 lay within 10 to 100 nM.

In the case of `CC[C@@H]1CN(Cc2cc([C@@H](c3ccc4c(nnn4CC)c3C)C(C)(C)NC(=O)c3cccn(C)c3=O)ccc2C)S(=O)(=O)c2ccccc2O1` [Example 140, N-((S)-1-(3-(((R)-4-Ethyl-1,1-dioxido-3,4-dihydro-2H-benzo[b][1,4,5]oxathiazepin-2-yl)methyl)-4-methylphenyl)-1-(1-ethyl-4-methyl-1H-benzo[d][1,2,3]triazol-5-yl)-2-methylpropan-2-yl)-1-methyl-2-oxo-1,2-dihydropyridine-3-carboxamide], the EC50 lay within 10 to 100 nM.

For the compound `CC[C@@H]1CN(Cc2cc([C@@H](c3ccc4c(nnn4CC)c3C)C(C)(C)NC(=O)c3ccn(C)c(=O)c3)ccc2C)S(=O)(=O)c2ccccc2O1` [Example 141, N-((S)-1-(3-(((R)-4-Ethyl-1,1-dioxido-3,4-dihydro-2H-benzo[b][1,4,5]oxathiazepin-2-yl)methyl)-4-methylphenyl)-1-(1-ethyl-4-methyl-1H-benzo[d][1,2,3]triazol-5-yl)-2-methylpropan-2-yl)-1-methyl-2-oxo-1,2-dihydropyridine-4-carboxamide], the EC50 was 10 to 100 nM.

For `CC[C@@H]1CN(Cc2cc([C@@H](c3ccc4c(nnn4CC)c3C)C(C)(C)NC(=O)CC(=O)O)ccc2C)S(=O)(=O)c2ccccc2O1` [Example 142, 3-(((S)-1-(3-(((R)-4-Ethyl-1,1-dioxido-3,4-dihydro-2H-benzo[b][1,4,5]oxathiazepin-2-yl)methyl)-4-methylphenyl)-1-(1-ethyl-4-methyl-1H-benzo[d][1,2,3]triazol-5-yl)-2-methylpropan-2-yl)amino)-3-oxopropanoic acid], the EC50 was 10 to 100 nM.

Turning to `CC[C@@H]1CN(Cc2cc([C@@H](c3ccc4c(nnn4CC)c3C)C(C)(C)NC(=O)CS(C)(=O)=O)ccc2C)S(=O)(=O)c2ccccc2O1` [Example 143, N-((S)-1-(3-(((R)-4-Ethyl-1,1-dioxido-3,4-dihydro-2H-benzo[b][1,4,5]oxathiazepin-2-yl)methyl)-4-methylphenyl)-1-(1-ethyl-4-methyl-1H-benzo[d][1,2,3]triazol-5-yl)-2-methylpropan-2-yl)-2-(methylsulfonyl)acetamide], the EC50 lay within 10 to 100 nM.

Take `CC[C@@H]1CN(Cc2cc([C@@H](c3ccc4c(nnn4CC)c3C)C(C)(C)NC(=O)CC#N)ccc2C)S(=O)(=O)c2ccccc2O1` [Example 144, 2-Cyano-N-((S)-1-(3-(((R)-4-ethyl-1,1-dioxido-3,4-dihydro-2H-benzo[b][1,4,5]oxathiazepin-2-yl)methyl)-4-methylphenyl)-1-(1-ethyl-4-methyl-1H-benzo[d][1,2,3]triazol-5-yl)-2-methylpropan-2-yl)acetamide]: the concentration for a half-maximal effect (EC50) was in the range of 10 to 100 nM.

Turning to `CC[C@@H]1CN(Cc2cc([C@@H](c3ccc4c(nnn4CC)c3C)C(C)(C)NC(=O)c3cnc(OC)nc3)ccc2C)S(=O)(=O)c2ccccc2O1` [Example 145, N-((S)-1-(3-(((R)-4-Ethyl-1,1-dioxido-3,4-dihydro-2H-benzo[b][1,4,5]oxathiazepin-2-yl)methyl)-4-methylphenyl)-1-(1-ethyl-4-methyl-1H-benzo[d][1,2,3]triazol-5-yl)-2-methylpropan-2-yl)-2-methoxypyrimidine-5-carboxamide], the EC50 lay in the range of 1 to 10 nM.

As to `CC[C@@H]1CN(Cc2cc([C@@H](c3ccc4c(nnn4CC)c3C)C(C)(C)NC(=O)c3cncnc3)ccc2C)S(=O)(=O)c2ccccc2O1` [Example 146, N-((S)-1-(3-(((R)-4-Ethyl-1,1-dioxido-3,4-dihydro-2H-benzo[b][1,4,5]oxathiazepin-2-yl)methyl)-4-methylphenyl)-1-(1-ethyl-4-methyl-1H-benzo[d][1,2,3]triazol-5-yl)-2-methylpropan-2-yl)pyrimidine-5-carboxamide], the EC50 lay in the range of 10 to 100 nM.

In the case of `CC[C@@H]1CN(Cc2cc([C@@H](c3ccc4c(nnn4CC)c3C)C(C)(C)NC(=O)c3cnc(SC)nc3)ccc2C)S(=O)(=O)c2ccccc2O1` [Example 147, N-((S)-1-(3-(((R)-4-Ethyl-1,1-dioxido-3,4-dihydro-2H-benzo[b][1,4,5]oxathiazepin-2-yl)methyl)-4-methylphenyl)-1-(1-ethyl-4-methyl-1H-benzo[d][1,2,3]triazol-5-yl)-2-methylpropan-2-yl)-2-(methylthio)pyrimidine-5-carboxamide], the half-maximal effective concentration (EC50) fell in the range of 10 to 100 nM.

With `CC[C@@H]1CN(Cc2cc([C@@H](c3ccc4c(nnn4CC)c3C)C(C)(C)NC(=O)c3c[nH]cn3)ccc2C)S(=O)(=O)c2ccccc2O1` [Example 148, N-((S)-1-(3-(((R)-4-Ethyl-1,1-dioxido-3,4-dihydro-2H-benzo[b][1,4,5]oxathiazepin-2-yl)methyl)-4-methylphenyl)-1-(1-ethyl-4-methyl-1H-benzo[d][1,2,3]triazol-5-yl)-2-methylpropan-2-yl)-1H-imidazole-4-carboxamide], the EC50 was in the range of 100 to 1000 nM.

In the case of `CC[C@@H]1CN(Cc2cc([C@@H](c3ccc4c(nnn4CC)c3C)C(C)(C)NC(=O)c3cscn3)ccc2C)S(=O)(=O)c2ccccc2O1` [Example 149, N-((S)-1-(3-(((R)-4-Ethyl-1,1-dioxido-3,4-dihydro-2H-benzo[b][1,4,5]oxathiazepin-2-yl)methyl)-4-methylphenyl)-1-(1-ethyl-4-methyl-1H-benzo[d][1,2,3]triazol-5-yl)-2-methylpropan-2-yl)thiazole-4-carboxamide], the EC50 was 10 to 100 nM.

In the case of `CC[C@@H]1CN(Cc2cc([C@@H](c3ccc4c(nnn4CC)c3C)C(C)(C)NC(=O)c3cc[nH]n3)ccc2C)S(=O)(=O)c2ccccc2O1` [Example 150, N-((S)-1-(3-(((R)-4-Ethyl-1,1-dioxido-3,4-dihydro-2H-benzo[b][1,4,5]oxathiazepin-2-yl)methyl)-4-methylphenyl)-1-(1-ethyl-4-methyl-1H-benzo[d][1,2,3]triazol-5-yl)-2-methylpropan-2-yl)-1H-pyrazole-3-carboxamide], the EC50 was 10 to 100 nM.

Consider `CC[C@@H]1CN(Cc2cc([C@@H](c3ccc4c(nnn4CC)c3C)C(C)(C)NC(=O)c3cocn3)ccc2C)S(=O)(=O)c2ccccc2O1` [Example 151, N-((S)-1-(3-(((R)-4-Ethyl-1,1-dioxido-3,4-dihydro-2H-benzo[b][1,4,5]oxathiazepin-2-yl)methyl)-4-methylphenyl)-1-(1-ethyl-4-methyl-1H-benzo[d][1,2,3]triazol-5-yl)-2-methylpropan-2-yl)oxazole-4-carboxamide], for which the concentration giving a half-maximal response (EC50) is 10 to 100 nM.

Regarding `CC[C@@H]1CN(Cc2cc([C@@H](c3ccc4c(nnn4CC)c3C)C(C)(C)NC(=O)c3ccno3)ccc2C)S(=O)(=O)c2ccccc2O1` [Example 152, N-((S)-1-(3-(((R)-4-Ethyl-1,1-dioxido-3,4-dihydro-2H-benzo[b][1,4,5]oxathiazepin-2-yl)methyl)-4-methylphenyl)-1-(1-ethyl-4-methyl-1H-benzo[d][1,2,3]triazol-5-yl)-2-methylpropan-2-yl)isoxazole-5-carboxamide], the 50% effective concentration (EC50) fell in the range of 1 to 10 nM.

With `CC[C@@H]1CN(Cc2cc([C@@H](c3ccc4c(nnn4CC)c3C)C(C)(C)NC(=O)c3ccon3)ccc2C)S(=O)(=O)c2ccccc2O1` [Example 153, N-((S)-1-(3-(((R)-4-Ethyl-1,1-dioxido-3,4-dihydro-2H-benzo[b][1,4,5]oxathiazepin-2-yl)methyl)-4-methylphenyl)-1-(1-ethyl-4-methyl-1H-benzo[d][1,2,3]triazol-5-yl)-2-methylpropan-2-yl)isoxazole-3-carboxamide], the 50% effective concentration (EC50) was in the range of 10 to 100 nM.
